Columns and labels:
Experiment in all cases: selective drug sensitivity score (sDSS, relative to normal bone marrow) (sDSS (score)); higher = more potent and effective on the cell line relative to normal bone marrow cells
Conditions in all cases: 72 h
380 = system: 380
ALL-PO = system: ALL-PO
ALL-SIL = system: ALL-SIL
CCRF-CEM = system: CCRF-CEM
COG-LL-319h = system: COG-LL-319h
COG-LL-332h = system: COG-LL-332h
COG-LL-394h = system: COG-LL-394h
JURKAT = system: JURKAT
LC4-1 = system: LC4-1
MHH-CALL-2 = system: MHH-CALL-2
MHH-CALL-3 = system: MHH-CALL-3
MHH-CALL-4 = system: MHH-CALL-4
MN-60 = system: MN-60
MOLT-16 = system: MOLT-16
NALL-1 = system: NALL-1
NALM-16 = system: NALM-16
NALM-6 = system: NALM-6
P30-OHKUBO = system: P30-OHKUBO
PEER = system: PEER
SEM cells = system: SEM cells
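Note: ALL cell lines in 384-well plates, five doses spanning 10,000-fold, each plate scaled between vehicle and 100 µmol/L benzalkonium chloride controls, sDSS an adapted area-under-curve metric.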

SMILES | selective drug sensitivity score 380 | selective drug sensitivity score (ALL-PO) | selective drug sensitivity score (ALL-SIL) | selective drug sensitivity score (CCRF-CEM) | selective drug sensitivity score (COG-LL-319h) | selective drug sensitivity score (COG-LL-332h) | selective drug sensitivity score (COG-LL-394h) | selective drug sensitivity score (JURKAT) | selective drug sensitivity score (LC4-1) | selective drug sensitivity score (MHH-CALL-2) | selective drug sensitivity score (MHH-CALL-3) | selective drug sensitivity score (MHH-CALL-4) | selective drug sensitivity score (MN-60) | selective drug sensitivity score (MOLT-16) | selective drug sensitivity score (NALL-1) | selective drug sensitivity score (NALM-16) | selective drug sensitivity score (NALM-6) | selective drug sensitivity score (P30-OHKUBO) | selective drug sensitivity score (PEER) | selective drug sensitivity score (SEM cells)
C[C@@H](Oc1ccc2[nH]nc(/C=C/c3cnn(CCO)c3)c2c1)c1c(Cl)cncc1Cl (top concentration 1000 nM) | -1.34 | 4.96 | 14.3 | -2.74 | 4.66 | 1.96 | -0.54 | -4.84 | 1.36 | -0.74 | -7.04 | -0.64 | -7.04 | -2.04 | -1.74 | -1.44 | 7.16 | 6.06 | 5.46 | 6.26
C=CC(=O)N1CCC[C@@H](n2nc(-c3ccc(Oc4ccccc4)cc3)c3c(N)ncnc32)C1 [Ibrutinib] (top concentration 1000 nM) | 0.9 | 1.8 | 0 | 0.1 | 5.2 | 2.4 | 0 | 0 | 1 | 0.1 | 0 | 0 | 0 | 2 | 0 | 0 | 2.4 | 1.2 | 0.6 | 0
O=C(NC1CCNCC1)c1n[nH]cc1NC(=O)c1c(Cl)cccc1Cl [AT7519] (top concentration 10000 nM) | -4.86 | -14.4 | -6.06 | -3.46 | -4.26 | -5.06 | -1.06 | -10.7 | -4.26 | -2.06 | -4.56 | -1.26 | -11.4 | -3.06 | -8.16 | -8.16 | -2.76 | -2.96 | -3.56 | -4.76
CN1CC[C@H](c2c(O)cc(O)c3c(=O)cc(-c4ccccc4Cl)oc23)[C@H](O)C1 [Alvocidib] (top concentration 10000 nM) | -4.3 | -6.7 | -3.3 | 0.6 | -2.7 | -0.3 | -2.5 | -2.6 | -3.3 | -3.5 | -3.6 | -3.8 | -3.9 | 0.7 | -7.1 | -3.6 | -1.2 | 1.1 | -2.1 | -3.5
O=C(CCCCCCC(=O)Nc1ccc([C@H]2O[C@@H](CSc3nc(-c4ccccc4)c(-c4ccccc4)o3)C[C@@H](c3ccc(CO)cc3)O2)cc1)NO [Tubacin] (top concentration 10000 nM) | 20.4 | 5.74 | 9.84 | 8.74 | 15.9 | 14 | 5.44 | 4.14 | 7.14 | 7.74 | 17.8 | 7.84 | 5.44 | 9.14 | 7.54 | 7.14 | 9.94 | 7.44 | 7.14 | 9.44
CN(C)CCOc1ccc(/C(=C(/CCCl)c2ccccc2)c2ccccc2)cc1 [Toremifene] (top concentration 10000 nM) | 1.58 | 3.18 | 1.28 | -0.02 | 3.48 | 0.98 | 0.58 | -0.42 | 1.08 | 9.68 | -2.52 | 0.48 | 0.78 | 3.38 | 8.98 | -0.82 | 1.68 | 0.58 | 1.28 | 0.48
Cc1cc(C(C)Nc2ccccc2)c2nc(N3CCOCC3)cc(=O)n2c1 (stereo not given) [TGX-221] (top concentration 10000 nM) | -1.64 | 1.16 | -1.64 | -0.54 | -1.64 | -1.54 | -1.24 | -0.74 | -1.64 | 5.16 | -1.64 | -1.44 | -1.64 | -1.34 | -0.44 | -1.64 | 3.56 | 3.36 | -0.74 | 5.46
CN1CCN(c2nc(C3=C(c4c[nH]c5ccccc45)C(=O)NC3=O)c3ccccc3n2)CC1 [Sotrastaurin] (top concentration 10000 nM) | 4.5 | 5 | 2.7 | -0.1 | 4.7 | 2 | 0.2 | -1.7 | 1.7 | 9.9 | 5.8 | 4.2 | -2.3 | 4.4 | 1.9 | 1.8 | 0.8 | 3.1 | 4 | 6.7
CNC(=O)c1cc(Oc2ccc(NC(=O)Nc3ccc(Cl)c(C(F)(F)F)c3)cc2)ccn1 [Sorafenib] (top concentration 1000 nM) | 0 | 5.5 | 0 | 0 | 0 | 0.1 | 0 | 0.4 | 0 | 0.3 | 0 | 0 | 0 | 0 | 0 | 0 | 0.2 | 2.2 | 0.1 | 15.1

— the supplement of paper PMC8967900
